Assay results from patent US9708314B2, “Heterocyclic amide compound” (NISSAN CHEMICAL INDUSTRIES, LTD., priority 2013, dated 2017).

How the values were obtained:
Type in all cases: in vivo
Monochoria vaginalis = test: Test Example 2: herbicidal activity, application during weed generation in submerged conditions; settings: Eighteenth Table; application herbicide amount 320 g/ha
Summary of the method: (§1)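 Scored three weeks post-application on a 0–5 scale (5: ≥90% herbicidal ratio, almost withered; 0: ≤5%). Plants raised from mixed-sown seed in submerged alluvial soil (4 cm water), 25–30 °C greenhouse; water-diluted emulsion applied onto water surface at one- to two-leaf stage, dose in g/ha.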

Scirpus juncoides = test: as above; settings: Eighteenth Table; application herbicide amount 320 g/ha
Summary of the method: as §1

[1] = test system: Echinochloa oryzacola Vasing.; test: as above; settings: Eighteenth Table; application herbicide amount 320 g/ha
Summary of the method: as §1

[2] = test system: directly sowed Oryza sativa; test: Test Example 3: effect on crop by application to foliage (Wagner pot, water depth 0.1-0.5 cm); settings: Nineteenth Table; application to foliage; application herbicide amount 320 g/ha
Summary of the method: (§2)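 Rice-field weeds and directly sown rice were grown 14 days in flooded alluvial soil (water depth 0.1–0.5 cm) at 25–30 °C in a greenhouse. An emulsion formulation diluted to the stated g/ha rate was sprayed onto stems and leaves. Effects were scored on a 0–5 scale (herbicidal ratio bands) three weeks after treatment.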

[3] = test system: Echinochloa crus-galli var. crus-galli; test: Test Example 3: herbicidal effect by application to foliage (Wagner pot, water depth 0.1-0.5 cm); settings: Nineteenth Table; application to foliage; application herbicide amount 320 g/ha
Summary of the method: as §2

Leptochloa chinensis = test: as above; settings: Nineteenth Table; application to foliage; application herbicide amount 320 g/ha
Summary of the method: as §2

Cyperus difformis = test: as above; settings: Nineteenth Table; application to foliage; application herbicide amount 320 g/ha
Summary of the method: as §2

With `Cc1nnc(NC(=O)c2ccc(C(F)(F)F)n3c(SCC4OCCO4)nnc23)o1` [1-126] the “C (Monochoria vaginalis) herbicidal ratio grade” value (Monochoria vaginalis) was 3 (Herbicidal ratio of 40% or more and less than 70%), the “B (Scirpus juncoides) herbicidal ratio grade” value (Scirpus juncoides) was 3 (Herbicidal ratio of 40% or more and less than 70%) and the “A (Echinochloa oryzicola Vasing.) herbicidal ratio grade” value [1] was 1 (Herbicidal ratio of 5% or more and less than 20%). The “b (effect on crop grade)” value [2] was 0 (Herbicidal ratio of 5% or less (almost no effect)), the “H (herbicidal effect grade)” value [3] was 4 (Herbicidal ratio of 70% or more and less than 90%) and the “D (herbicidal effect grade)” value (Leptochloa chinensis) was 4 (Herbicidal ratio of 70% or more and less than 90%). The “E (herbicidal effect grade)” value (Cyperus difformis) was 4 (Herbicidal ratio of 70% or more and less than 90%).

For `COCCN(C)c1nnc2c(C(=O)Nc3nnc(C)o3)ccc(C(F)(F)F)n12` [1-129], the “C (Monochoria vaginalis) herbicidal ratio grade” value (Monochoria vaginalis) was 3 (Herbicidal ratio of 40% or more and less than 70%), the “B (Scirpus juncoides) herbicidal ratio grade” value (Scirpus juncoides) was 4 (Herbicidal ratio of 70% or more and less than 90%) and the “A (Echinochloa oryzicola Vasing.) herbicidal ratio grade” value [1] was 3 (Herbicidal ratio of 40% or more and less than 70%). For the same compound, the “b (effect on crop grade)” value [2] was 3 (Herbicidal ratio of 40% or more and less than 70%), the “H (herbicidal effect grade)” value [3] was 5 (Herbicidal ratio of 90% or more (almost completely withered)) and the “D (herbicidal effect grade)” value (Leptochloa chinensis) was 5 (Herbicidal ratio of 90% or more (almost completely withered)). For the same compound, the “E (herbicidal effect grade)” value (Cyperus difformis) was 4 (Herbicidal ratio of 70% or more and less than 90%).

With `Cc1nnc(NC(=O)c2ccc(C(F)(F)F)n3c(NCC(F)(F)F)nnc23)o1` [1-131] the “C (Monochoria vaginalis) herbicidal ratio grade” value (Monochoria vaginalis) was 0 (Herbicidal ratio of 5% or less (almost no effect)), the “B (Scirpus juncoides) herbicidal ratio grade” value (Scirpus juncoides) was 1 (Herbicidal ratio of 5% or more and less than 20%) and the “A (Echinochloa oryzicola Vasing.) herbicidal ratio grade” value [1] was 0 (Herbicidal ratio of 5% or less (almost no effect)). For the same compound, the “b (effect on crop grade)” value [2] was 2 (Herbicidal ratio of 20% or more and less than 40%), the “H (herbicidal effect grade)” value [3] was 4 (Herbicidal ratio of 70% or more and less than 90%) and the “D (herbicidal effect grade)” value (Leptochloa chinensis) was 4 (Herbicidal ratio of 70% or more and less than 90%). The “E (herbicidal effect grade)” value (Cyperus difformis) was 3 (Herbicidal ratio of 40% or more and less than 70%).

`Cc1nnc(NC(=O)c2ccc(C(F)(F)F)n3c(N(C)C(C)C)nnc23)o1` [1-132] was tested, and the “C (Monochoria vaginalis) herbicidal ratio grade” value (Monochoria vaginalis) was 4 (Herbicidal ratio of 70% or more and less than 90%), the “B (Scirpus juncoides) herbicidal ratio grade” value (Scirpus juncoides) was 4 (Herbicidal ratio of 70% or more and less than 90%) and the “A (Echinochloa oryzicola Vasing.) herbicidal ratio grade” value [1] was 4 (Herbicidal ratio of 70% or more and less than 90%). The “b (effect on crop grade)” value [2] was 3 (Herbicidal ratio of 40% or more and less than 70%), the “H (herbicidal effect grade)” value [3] was 5 (Herbicidal ratio of 90% or more (almost completely withered)) and the “D (herbicidal effect grade)” value (Leptochloa chinensis) was 5 (Herbicidal ratio of 90% or more (almost completely withered)). The “E (herbicidal effect grade)” value (Cyperus difformis) was 4 (Herbicidal ratio of 70% or more and less than 90%).

In the case of `Cc1nnc(NC(=O)c2ccc(C(F)(F)F)n3c(N(C)C4CCCCC4)nnc23)o1` [1-133], the “C (Monochoria vaginalis) herbicidal ratio grade” value (Monochoria vaginalis) was 3 (Herbicidal ratio of 40% or more and less than 70%), the “B (Scirpus juncoides) herbicidal ratio grade” value (Scirpus juncoides) was 2 (Herbicidal ratio of 20% or more and less than 40%) and the “A (Echinochloa oryzicola Vasing.) herbicidal ratio grade” value [1] was 2 (Herbicidal ratio of 20% or more and less than 40%). For the same compound, the “b (effect on crop grade)” value [2] was 0 (Herbicidal ratio of 5% or less (almost no effect)), the “H (herbicidal effect grade)” value [3] was 4 (Herbicidal ratio of 70% or more and less than 90%) and the “D (herbicidal effect grade)” value (Leptochloa chinensis) was 2 (Herbicidal ratio of 20% or more and less than 40%). For the same compound, the “E (herbicidal effect grade)” value (Cyperus difformis) was 0 (Herbicidal ratio of 5% or less (almost no effect)).

`CCN(C)c1nnc2c(C(=O)Nc3nnc(C)o3)ccc(C(F)(F)F)n12` [1-134] was tested, and the “C (Monochoria vaginalis) herbicidal ratio grade” value (Monochoria vaginalis) was 3 (Herbicidal ratio of 40% or more and less than 70%), the “B (Scirpus juncoides) herbicidal ratio grade” value (Scirpus juncoides) was 3 (Herbicidal ratio of 40% or more and less than 70%) and the “A (Echinochloa oryzicola Vasing.) herbicidal ratio grade” value [1] was 1 (Herbicidal ratio of 5% or more and less than 20%). The “b (effect on crop grade)” value [2] was 2 (Herbicidal ratio of 20% or more and less than 40%), the “H (herbicidal effect grade)” value [3] was 5 (Herbicidal ratio of 90% or more (almost completely withered)) and the “D (herbicidal effect grade)” value (Leptochloa chinensis) was 4 (Herbicidal ratio of 70% or more and less than 90%). The “E (herbicidal effect grade)” value (Cyperus difformis) was 2 (Herbicidal ratio of 20% or more and less than 40%).

With `CCN(CC)c1nnc2c(C(=O)Nc3nnc(C)o3)ccc(C(F)(F)F)n12` [1-135] the “C (Monochoria vaginalis) herbicidal ratio grade” value (Monochoria vaginalis) was 3 (Herbicidal ratio of 40% or more and less than 70%), the “B (Scirpus juncoides) herbicidal ratio grade” value (Scirpus juncoides) was 2 (Herbicidal ratio of 20% or more and less than 40%) and the “A (Echinochloa oryzicola Vasing.) herbicidal ratio grade” value [1] was 2 (Herbicidal ratio of 20% or more and less than 40%). The “b (effect on crop grade)” value [2] was 1 (Herbicidal ratio of 5% or more and less than 20%), the “H (herbicidal effect grade)” value [3] was 5 (Herbicidal ratio of 90% or more (almost completely withered)) and the “D (herbicidal effect grade)” value (Leptochloa chinensis) was 4 (Herbicidal ratio of 70% or more and less than 90%). The “E (herbicidal effect grade)” value (Cyperus difformis) was 2 (Herbicidal ratio of 20% or more and less than 40%).

In the case of `Cc1nnc(NC(=O)c2ccc(C(F)(F)F)n3c(N4CCCC4)nnc23)o1` [1-136], the “C (Monochoria vaginalis) herbicidal ratio grade” value (Monochoria vaginalis) was 2 (Herbicidal ratio of 20% or more and less than 40%), the “B (Scirpus juncoides) herbicidal ratio grade” value (Scirpus juncoides) was 2 (Herbicidal ratio of 20% or more and less than 40%) and the “A (Echinochloa oryzicola Vasing.) herbicidal ratio grade” value [1] was 0 (Herbicidal ratio of 5% or less (almost no effect)). For the same compound, the “b (effect on crop grade)” value [2] was 2 (Herbicidal ratio of 20% or more and less than 40%), the “H (herbicidal effect grade)” value [3] was 4 (Herbicidal ratio of 70% or more and less than 90%) and the “D (herbicidal effect grade)” value (Leptochloa chinensis) was 4 (Herbicidal ratio of 70% or more and less than 90%). For the same compound, the “E (herbicidal effect grade)” value (Cyperus difformis) was 0 (Herbicidal ratio of 5% or less (almost no effect)).

In the case of `CCN(C)c1nnc2c(C(=O)Nc3nnco3)ccc(C(F)(F)F)n12` [1-137], the “C (Monochoria vaginalis) herbicidal ratio grade” value (Monochoria vaginalis) was 3 (Herbicidal ratio of 40% or more and less than 70%), the “B (Scirpus juncoides) herbicidal ratio grade” value (Scirpus juncoides) was 3 (Herbicidal ratio of 40% or more and less than 70%) and the “A (Echinochloa oryzicola Vasing.) herbicidal ratio grade” value [1] was 3 (Herbicidal ratio of 40% or more and less than 70%). For the same compound, the “b (effect on crop grade)” value [2] was 3 (Herbicidal ratio of 40% or more and less than 70%), the “H (herbicidal effect grade)” value [3] was 5 (Herbicidal ratio of 90% or more (almost completely withered)) and the “D (herbicidal effect grade)” value (Leptochloa chinensis) was 5 (Herbicidal ratio of 90% or more (almost completely withered)). For the same compound, the “E (herbicidal effect grade)” value (Cyperus difformis) was 4 (Herbicidal ratio of 70% or more and less than 90%).

In the case of `CCN(CC)c1nnc2c(C(=O)Nc3nnco3)ccc(C(F)(F)F)n12` [1-138], the “C (Monochoria vaginalis) herbicidal ratio grade” value (Monochoria vaginalis) was 3 (Herbicidal ratio of 40% or more and less than 70%), the “B (Scirpus juncoides) herbicidal ratio grade” value (Scirpus juncoides) was 3 (Herbicidal ratio of 40% or more and less than 70%) and the “A (Echinochloa oryzicola Vasing.) herbicidal ratio grade” value [1] was 3 (Herbicidal ratio of 40% or more and less than 70%). The “b (effect on crop grade)” value [2] was 3 (Herbicidal ratio of 40% or more and less than 70%), the “H (herbicidal effect grade)” value [3] was 5 (Herbicidal ratio of 90% or more (almost completely withered)) and the “D (herbicidal effect grade)” value (Leptochloa chinensis) was 5 (Herbicidal ratio of 90% or more (almost completely withered)). For the same compound, the “E (herbicidal effect grade)” value (Cyperus difformis) was 4 (Herbicidal ratio of 70% or more and less than 90%).

`O=C(Nc1nnco1)c1ccc(C(F)(F)F)n2c(N3CCCC3)nnc12` [1-139] was tested, and the “C (Monochoria vaginalis) herbicidal ratio grade” value (Monochoria vaginalis) was 3 (Herbicidal ratio of 40% or more and less than 70%), the “B (Scirpus juncoides) herbicidal ratio grade” value (Scirpus juncoides) was 3 (Herbicidal ratio of 40% or more and less than 70%) and the “A (Echinochloa oryzicola Vasing.) herbicidal ratio grade” value [1] was 4 (Herbicidal ratio of 70% or more and less than 90%). For the same compound, the “b (effect on crop grade)” value [2] was 1 (Herbicidal ratio of 5% or more and less than 20%), the “H (herbicidal effect grade)” value [3] was 4 (Herbicidal ratio of 70% or more and less than 90%) and the “D (herbicidal effect grade)” value (Leptochloa chinensis) was 5 (Herbicidal ratio of 90% or more (almost completely withered)). For the same compound, the “E (herbicidal effect grade)” value (Cyperus difformis) was 5 (Herbicidal ratio of 90% or more (almost completely withered)).

With `Cn1nnnc1NC(=O)c1ccc(C(F)(F)F)n2c(C3CC3)nnc12` [2-005] the “C (Monochoria vaginalis) herbicidal ratio grade” value (Monochoria vaginalis) was 4 (Herbicidal ratio of 70% or more and less than 90%), the “B (Scirpus juncoides) herbicidal ratio grade” value (Scirpus juncoides) was 3 (Herbicidal ratio of 40% or more and less than 70%) and the “A (Echinochloa oryzicola Vasing.) herbicidal ratio grade” value [1] was 5 (Herbicidal ratio of 90% or more (almost completely withered)). The “b (effect on crop grade)” value [2] was 2 (Herbicidal ratio of 20% or more and less than 40%), the “H (herbicidal effect grade)” value [3] was 5 (Herbicidal ratio of 90% or more (almost completely withered)) and the “D (herbicidal effect grade)” value (Leptochloa chinensis) was 5 (Herbicidal ratio of 90% or more (almost completely withered)). The “E (herbicidal effect grade)” value (Cyperus difformis) was 4 (Herbicidal ratio of 70% or more and less than 90%).

In the case of `CCC(CC)c1nnc2c(C(=O)Nc3nnnn3C)ccc(C(F)(F)F)n12` [2-006], the “C (Monochoria vaginalis) herbicidal ratio grade” value (Monochoria vaginalis) was 5 (Herbicidal ratio of 90% or more (almost completely withered)), the “B (Scirpus juncoides) herbicidal ratio grade” value (Scirpus juncoides) was 5 (Herbicidal ratio of 90% or more (almost completely withered)) and the “A (Echinochloa oryzicola Vasing.) herbicidal ratio grade” value [1] was 5 (Herbicidal ratio of 90% or more (almost completely withered)). The “b (effect on crop grade)” value [2] was 5 (Herbicidal ratio of 90% or more (almost completely withered)), the “H (herbicidal effect grade)” value [3] was 5 (Herbicidal ratio of 90% or more (almost completely withered)) and the “D (herbicidal effect grade)” value (Leptochloa chinensis) was 5 (Herbicidal ratio of 90% or more (almost completely withered)). The “E (herbicidal effect grade)” value (Cyperus difformis) was 5 (Herbicidal ratio of 90% or more (almost completely withered)).

`Cn1nnnc1NC(=O)c1ccc(C(F)(F)F)n2c(-c3ccccc3)nnc12` [2-007] was tested, and the “C (Monochoria vaginalis) herbicidal ratio grade” value (Monochoria vaginalis) was 4 (Herbicidal ratio of 70% or more and less than 90%), the “B (Scirpus juncoides) herbicidal ratio grade” value (Scirpus juncoides) was 4 (Herbicidal ratio of 70% or more and less than 90%) and the “A (Echinochloa oryzicola Vasing.) herbicidal ratio grade” value [1] was 4 (Herbicidal ratio of 70% or more and less than 90%). The “b (effect on crop grade)” value [2] was 4 (Herbicidal ratio of 70% or more and less than 90%), the “H (herbicidal effect grade)” value [3] was 5 (Herbicidal ratio of 90% or more (almost completely withered)) and the “D (herbicidal effect grade)” value (Leptochloa chinensis) was 5 (Herbicidal ratio of 90% or more (almost completely withered)). The “E (herbicidal effect grade)” value (Cyperus difformis) was 5 (Herbicidal ratio of 90% or more (almost completely withered)).
